Where a name gives a salt, the structure may show the parent alone. A value given as a limit tells only on which side of the number the result lay.

One assay concerns the target SARS-CoV-2 M^pro (Severe acute respiratory syndrome coronavirus 2, UniProt P0DTD1). Put plainly: biochemical. In kind it is biochemical.
Conditions: not given
For the compound `Br.NC1CCc2cc(O)c(O)cc2C1` (racemic) [(±)-2-Amino-6,7-dihydroxy-1,2,3,4-tetrahydronaphthalene hydrobromide], the “% Mpro inhibition at 20 µM” value is 88.3%.

As for `C[n+]1cc2c3c(ccc2c2ccc4cc5c(cc4c21)OCO5)OCO3` [Sanguinarium chloride, Sanguinarine chloride], the “% Mpro inhibition at 20 µM” value is 98.7%.

As for `CC(C)(C)c1ccc(S(=O)(=O)/C=C/C#N)cc1` [Bay 11-7085], the “% Mpro inhibition at 20 µM” value is recorded as 95.0%.

Take `OC[C@H]1O[C@H]([S-])[C@H](O)[C@@H](O)[C@@H]1O.[Au+]` [Aurothioglucose]: the “% Mpro inhibition at 20 µM” value was found to be 96.6%.

For `N.S=C(S)N1CCCC1` [Ammonium pyrrolidinedithiocarbamate], the “% Mpro inhibition at 20 µM” value amounted to 95.1%.

For `O=Nc1ccc2oc(=O)ccc2c1` [6-Nitroso-1,2-benzopyrone], the “% Mpro inhibition at 20 µM” value turned out to be 99.5%.

For `CC=CC1=C(C(=O)O)N2C(=O)[C@@H](NC(=O)[C@H](N)c3ccc(O)cc3)[C@H]2SC1` [Cefprozil], the “% Mpro inhibition at 20 µM” value is given as 57.5%.

For `CCN[C@@H]1C[C@H](N)[C@@H](O[C@H]2OC(CN)=CC[C@H]2N)[C@H](O)[C@H]1O[C@H]1OC[C@](C)(O)[C@H](NC)[C@H]1O.CCN[C@@H]1C[C@H](N)[C@@H](O[C@H]2OC(CN)=CC[C@H]2N)[C@H](O)[C@H]1O[C@H]1OC[C@](C)(O)[C@H](NC)[C@H]1O.O=S(=O)(O)O.O=S(=O)(O)O.O=S(=O)(O)O.O=S(=O)(O)O.O=S(=O)(O)O` [Netilmicin sulfate], the “% Mpro inhibition at 20 µM” value was found to be 89.1%.

As to `Br.CCCN1CCc2cc(O)cc3c2[C@H]1Cc1ccc(O)c(O)c1-3` [(R)-(−)-2,10,11-Trihydroxy-n-propylnoraporphine hydrobromide], the “% Mpro inhibition at 20 µM” value was 98.3%.

Take `CCCN1CCc2cccc3c2[C@H]1Cc1ccc(O)c(O)c1-3.Cl` [(R)-(−)-Propylnorapomorphine hydrochloride]: the “% Mpro inhibition at 20 µM” value is 100.0%.

As to `NC(=O)CI` [Iodoacetamide], the “% Mpro inhibition at 20 µM” value is 99.3%.

In the case of “(R)-(−)-2,10,11-Trihydroxyaporphine hybrobromide”, the “% Mpro inhibition at 20 µM” value amounted to 99.6%.

On to `Br.CN=c1nc(-c2ccccc2)n(-c2ccccc2)s1` [Sch-202676 hydrobromide], for which the “% Mpro inhibition at 20 µM” value was 100.0%.

Consider `[Cl-].[NH3+][Pt-2]([NH3+])([Cl])[n+]1ccccc1` (stereo not drawn) [cis-Diammine(pyridine)chloroplatinum(II) chloride], for which the “% Mpro inhibition at 20 µM” value was determined as 99.6%.

For the compound Colistin sulfate, the “% Mpro inhibition at 20 µM” value stood at 95.8%.

Regarding `CC(C)N(CCC(=O)c1ccc2ccccc2c1)Cc1ccccc1.Cl` [ZM 39923 hydrochloride], the “% Mpro inhibition at 20 µM” value is on record as 96.9%.

As for `CCN(CC)C(=S)SSC(=S)N(CC)CC` [Disulfiram, Tetraethylthiuram disulphide], the “inhibition at a fixed 20 μM inhibitor concentration” value was not below 80%.

Take `O=C(N[C@@H](Cc1ccccc1)C(=O)CCl)OCc1ccccc1` [N-Carbobenzyloxy-L-phenylanlanyl chloromethyl ketone]: the “% Mpro inhibition at 20 µM” value was 100.0%.

As for `Oc1ccccc1O` [Pyrocatechol], the “% Mpro inhibition at 20 µM” value turned out to be 85.4.

Regarding `NC(N)=Nc1ccc2[nH]c3c(c2c1)C[C@@]1(O)[C@H]2Cc4ccc(O)c5c4[C@@]1(CCN2CC1CC1)[C@H]3O5.O=C(O)C(F)(F)F.O=C(O)C(F)(F)F` [Guanidinyl-naltrindole di-trifluoroacetate], the “% Mpro inhibition at 20 µM” value is 99.6%.

Consider “Chlorophyllide copper complex sodium salt”, for which the “% Mpro inhibition at 20 µM” value was determined as 86.5%.

For the compound `CO/N=C(\C(=O)N[C@@H]1C(=O)N2C(C(=O)O)=C(CSC(=O)c3ccco3)CS[C@H]12)c1csc(N)n1.Cl` [Ceftiofur hydrochloride], the “% Mpro inhibition at 20 µM” value worked out at 65.0%.

Regarding `CC(=O)OCC1=C(C(=O)[O-])N2C(=O)[C@@H](NC(=O)CCCC(N)C(=O)O)[C@H]2SC1.[Na+]` (stereo partly drawn) [Cephalosporin C sodium], the “% Mpro inhibition at 20 µM” value is recorded as 78.3% and the “M^pro inhibition (in words)” value is recorded as “inhibited”.

For `CC(Cc1ccc(O)c(O)c1)C(C)Cc1ccc(O)c(O)c1` (stereo not drawn) [Nordihydroguaiaretic acid], the “% Mpro inhibition at 20 µM” value turned out to be 97.8%.

Staying with this assay, now noted: 20, 50 and 100 µM β-lactam; 30 min or 60 min preincubation (Fig. S17).
For the compound `CC1(C)S[C@@H]2[C@H](NC(=O)COc3ccccc3)C(=O)N2[C@H]1C(=O)O` [penicillin V], the “M^pro inhibition at single concentrations (in words)” value is “No inhibition was observed”.

For `CO/N=C(\C(=O)N[C@@H]1C(=O)N2C(C(=O)O)=C(CSC(=O)c3ccco3)CS[C@H]12)c1csc(N)n1` [ceftiofur], the “M^pro inhibition at single concentrations (in words)” value is listed as “weak time dependent inhibition”.

Take `C=CC1=C(C(=O)O)N2C(=O)[C@@H](NC(=O)/C(=N\O)c3csc(N)n3)[C@H]2SC1` [Cefdinir]: the “M^pro inhibition at single concentrations (in words)” value was “weak time dependent inhibition”.

For the compound `O=C1[C@H](CC[C@H](O)c2ccc(F)cc2)[C@@H](c2ccc(O)cc2)N1c1ccc(F)cc1` [ezetimibe], the “M^pro inhibition at single concentrations (in words)” value was “weak time dependent inhibition”.

In the case of `CC1(C)S[C@@H]2[C@H](NC(=O)[C@H](N)c3ccccc3)C(=O)N2[C@H]1C(=O)OC1OC(=O)c2ccccc21` (stereo partly drawn) [talampicillin], the “M^pro inhibition at single concentrations (in words)” value was “weak time dependent inhibition”.

As to `CC1(C)S[C@@H]2[C@H](NC(=O)Cc3ccccc3)C(=O)N2[C@H]1C(=O)O` [penicillin G], the “M^pro inhibition at single concentrations (in words)” value is on record as “No inhibition was observed”.

Staying with this assay, now noted: library of FDA-approved small molecules; 20 µM compound, […] Mpro, 2.0 µM TSAVLQ/SGFRK-NH2; read-out: % Mpro inhibition at 20 µM.
`Cc1c(-c2cnccn2)ssc1=S` [Oltipraz]: the inhibition at 20 µM worked out at 99.6%.

Staying with this assay, now noted: read-out: % Mpro inhibition at 20 µM.
As for `COc1ccc2c(c[n+](C)c3c4cc5c(cc4ccc23)OCO5)c1OC` [Chelerythrine chloride], the inhibition at 20 µM was 85.2%.

Turning to `C[n+]1cc2c3c(ccc2c2ccc4cc5c(cc4c21)OCO5)OCO3` [Sanguinarium chloride, Sanguinarine chloride], the inhibition at 20 µM was found to be 100%.

Regarding `Oc1cc(O)cc(/C=C/c2ccc(O)c(O)c2)c1` [Piceatannol], the inhibition at 20 µM turned out to be 93.8%.

In the case of `CC[N+]1(C)CCCC(OC(=O)C(O)(c2ccccc2)c2ccccc2)C1` (stereo not drawn) [Pipenzolate bromide], the inhibition at 20 µM was 100%.

Consider `NCc1ccccc1CC(=O)N[C@@H]1C(=O)N2C(C(=O)O)=C(CSc3nnnn3CC(=O)O)CS[C@H]12` [Ceforanide], for which the inhibition at 20 µM came out at 10.2%.

Turning to `S=C=NCc1ccccc1` [Benzyl isothiocyanate], the inhibition at 20 µM was 95.8%.

On to `CC(=O)/N=c1/sc(S(N)(=O)=O)nn1C` [Methazolamide], for which the inhibition at 20 µM is 82.9%.

Regarding `CO/N=C(\C(=O)N[C@@H]1C(=O)N2C(C(=O)O)=C(C[N+]3(C)CCCC3)CS[C@H]12)c1csc(N)n1` [Cefepime hydrochloride], the inhibition at 20 µM amounted to 20.6%.

As for `NC(=O)c1cc[n+](CC2=C(C(=O)[O-])N3C(=O)[C@@H](NC(=O)Cc4cccs4)[C@H]3SC2)cc1` [Cefalonium], the inhibition at 20 µM was determined as 9.2%.

Turning to `O=c1oc(Cl)c(Cl)c2ccccc12` [3,4-Dichloroisocoumarin], the inhibition at 20 µM was determined as 80.4%.

On to `O=C1C=CC(=O)C=C1` [1,4-Benzoquinone], for which the inhibition at 20 µM came to 99.3%.

Staying with this assay, now noted: read-out: % Mpro inhibition at 20 µM, LOPAC1280 library; 20 µM compound, […] Mpro, 2.0 µM TSAVLQ/SGFRK-NH2.
As for `CCN(CC)C(=S)SSC(=S)N(CC)CC` [Disulfiram, Tetraethylthiuram disulphide], the inhibition at 20 µM was 97.5%.

As to `N[C@@H](C(=O)N[C@@H]1C(=O)N2C(C(=O)O)=C(Cl)CS[C@H]12)c1ccccc1` [Cefaclor], the inhibition at 20 µM came out at 8.7%.

As for `Oc1cc2c(cc1O)CN(C(=S)NCCc1ccc(Cl)cc1)CCC2` [Capsazepine], the inhibition at 20 µM amounted to 94.5%.

Staying with this assay, now noted: read-out: % Mpro inhibition at 20 µM, library of FDA-approved small molecules; 20 µM compound, […] Mpro, 2.0 µM TSAVLQ/SGFRK-NH2.
With `O=[N+]([O-])c1ccc(O)c2ncccc12` [Nitroxoline], the inhibition at 20 µM was 96%.

With `CCN(CC)C(=S)SSC(=S)N(CC)CC` [Disulfiram, Tetraethylthiuram disulphide], the inhibition at 20 µM was 99.1%.

The values are drawn from paper PMC8006714 (Chemical Communications (Cambridge, England), 2021).
